# Reference: patent US20250011878A1, “METHOD TO DETECT RNA BIOMARKERS” (ITALFARMACO SPA, priority 2021, published 2025)
# Experiments:
# human monocytes = test: RNAseq gene expression in purified human monocytes treated with ITF3756 and/or TNF-α; assay type: cell-based
# Source text: PBMCs used for the experiments were obtained from Buffy Coats of healthy donors (all samples tested negative for transmissible diseases as required for blood transfusion) separated over a Ficoll-Hypaque gradient (Biochrom). Monocytes were purified by negative selection from 100×10^6 PBMC using Pan Monocytes Isolation Kit (Milteny) following manufacturer's instructions. By Pan Monocyte Isolation kit untouched monocytes are isolated from human PBMCs and the simultaneous enrichment of classical (CD14^++CD16^−), non classical (CD14^+CD16^++) and intermediate (CD14^++CD16^+) monocytes is achieved. Non-monocytes, such as T cells, NK cells, B cells, dendritic cells, and basophils are indirectly magnetically labeled using a cocktail of biotin-conjugated antibodies and anti-Biotin MicroBeads. Briefly, 400 μL of Buffer (PBS 1×, 0.5% BSA and 2 mM EDTA), 100 μL of FcR Blocking Reagent and 100 μL of Biotin-Antibody Cocktail were added to PBMC, previously washed with PBS by centrifugation 300×g for 5 minutes, mixed and incubate for 5 minutes in the refrigerator (2-8° C.). After incubation, 300 μL of Buffer and 200 μL of anti-biotin microbeads were added to the cells, mixed and incubate further for 10 minutes in the refrigerator. After incubation cells were processed by subsequent magnetic cell separation. Cell suspension was applied onto the column and the flow-through containing unlabeled cells, representing the enriched monocytes, was collected. Purified monocytes were washed with Buffer by centrifugation 300×g for 5 minutes and counted in PBS. Purified monocytes (1,0×10^6/ml) were pre-treated for 2 h with ITF3756 1 μM or DMSO (0.005%) in 12-well plates in 1 ml final volume of complete medium (RPMI (Biochrom), FCS 10% and penicillin/streptomycin 1× (Sigma)). The cells were then stimulated or not with TNF-α (100 ng/mL, Peprotech) for 4h. After incubation with ITF3756 and TNF-α, the cells were collected, washed with PBS by centrifugation 300×g for 5 minutes and stored at −80° C. Samples were thawed on the bench for 2 minutes and total RNA was extracted with Trizol reagent (Thermo Fisher Scientific), following manufacturer's instructions. Briefly, Trizol reagent (0.75 ml Trizol per 5-10×10^6 cells) was added to the samples and the samples were incubated at room temperature (RT) for 5 minutes. After incubation, chloroform (150 μL per 0.75 mL Trizol) was added to the samples and after 3 minutes of incubation at RT, samples were centrifuged for 12000×g for 14 minutes at 4° C. After centrifugation, the mixture separates into 3 phases and RNA remains in the aqueous phase. The aqueous phase was removed for each sample and placed in new tubes, and isopropanol (0,375 ml per 0.75 ml of Trizol) was added in each tube. Samples was incubated for 30 minutes in the refrigerator (2-8° C.). After incubation, samples were centrifugated for 12000×g for 10 minutes at 4° C., the supernatant was removed and 75% ethanol (0.75 ml per 0.75 ml of Trizol) was added to samples. Samples were centrifuged for 7500×g for 5 minutes at 4° C., and the supernatant discarded. RNA was air dried on the bench for 5-10 minutes. RNA Samples was then resuspended in water (10-50 μL). The scheme of the experimental procedures carried out to generate the RNA sequence data is represented in FIG. 1. To determine the quantity and the integrity/purity of RNA samples, check controls were first performed by the Agilent Technologies 2100 Bioanalyzer using RNA 6000 LabChip® kit (Agilent #5067-1511). The Bioanalyzer is a bio-analytical device based on a combination of microfluidic chips, voltage-induced size separation in gel filled channels and laser-induced fluorescence (LIF) detection on a miniaturized scale. The RNA Integrity Number (RIN) software algorithm allows the classification of total RNA, based on a numbering system from 1 to 10, (with 1 being the most degraded and 10 being the most intact). […] Purified samples were processed using TruSeq RNA-Seq v2 Library Preparation Kit. […]
# [1] = clinical data; cited from earlier work
# [2] = single treatment (ITF3756 1 μM or TNF-α 100 ng/mL), RNAseq, vs control
# [3] = single treatment vs vehicle-treated control (don), monocytes 4 h, padj<0.05
Molecule,ADA gene expression (human monocytes; [2]),IRF6 gene expression (human monocytes; [2]),LTBP4 gene expression (human monocytes; [2]),"MMP9 gene expression (human monocytes; single treatment (ITF3756 1 μM or TNF-α 100 ng/mL), RNAseq, vs untreated control)","PD-L1 gene expression (human monocytes; single treatment (TNF-α 100 ng/mL 4 h), vs control)",Genes Down regulated (number of genes modulated) (human monocytes; [3]),Genes Up regulated (number of genes modulated) (human monocytes; [3]),tolerability in patients [1]
TNF-α [reference compound],upregulation,no effect,downregulated by two fold,No modulation,strongly upregulated,1688,1563,–
O=C(CCCCCCNC(=O)c1cnc(N(c2ccccc2)c2ccccc2)nc1)NO [Ricolinostat],–,–,–,–,–,–,–,very well tolerated
O=C(NO)c1ccc(CN(c2cnccn2)c2cnccn2)cc1 [KA2507],–,–,–,–,–,–,–,very well tolerated
